Laboratory results: US20250281424A1 (New York Blood Center, Inc, priority 2020, published 2025)

Molecular target: T1, human PF4 (Homo sapiens, UniProt P02776)
T1 construct: PF4 is a 70 amino acid, lysine-rich 7.8 kDa platelet-specific protein; made in house; host or cells: Escherichia coli BL21DE3 pLysS (pT7-7) and/or Drosophila S2 cells
T1 sequence (P02776 32-101): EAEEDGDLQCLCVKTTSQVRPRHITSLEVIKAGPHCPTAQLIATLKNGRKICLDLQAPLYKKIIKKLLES
Assay: Inhibition of PF4 tetramer formation (BS3 cross-linking, SDS-PAGE)
Type: biochemical
Conditions: for inhibition at 5 µM: 5 μM inhibitor; for inhibition at 5 µM / inhibition at 10 µM / inhibition at 1 µM / inhibition at 3 µM: read-out: % inhibition of PF4 tetramer formation at single concentration of inhibitor; for inhibition at 10 µM: 10 μM inhibitor (column A); for IC50: read-out: IC50 of PF4 tetramer formation inhibition; for inhibition at 1 µM: 1 μM inhibitor; for inhibition at 3 µM: 3 μM inhibitor (column A)
Summary of the method: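 Monomer, dimer, trimer and tetramer fractions were quantified by densitometry after reducing 12% SDS-PAGE of BS3-cross-linked (0.2 mM, 30 min, room temperature) PF4. Before cross-linking, 10 μg/ml E. coli-expressed human WT PF4 in PBS was exposed to compound for 15 min at 37° C or 60 min at room temperature; controls lacked compound.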

| SMILES | inhibition at 5 µM | inhibition at 10 µM | IC50 | inhibition at 1 µM | inhibition at 3 µM |
| --- | --- | --- | --- | --- | --- |
| O=C(CC1CC1)C1C(=O)c2ccc(S(=O)(=O)c3ccc4c(c3)C(=O)C(C(=O)CC3CC3)C4=O)cc2C1=O (stereo not drawn) [Example 149, 2-(2-cyclopropylacetyl)-5-{[2-(2-cyclopropylacetyl)-1,3-dioxo-2,3-dihydro-1H-inden-5-yl]sulfonyl}-2,3-dihydro-1H-indene-1,3-dione] | 64% | 53% | – | – | – |
| O=C(c1ccc2c(c1)C(=O)C(C(=O)NCC1CCOC1)C2=O)c1ccc2c(c1)C(=O)C(C(=O)NCC1CCOC1)C2=O (stereo not drawn) [Example 363, 5-(1,3-dioxo-2-{[(oxolan-3-yl)methyl]carbamoyl}-2,3-dihydro-1H-indene-5-carbonyl)-1,3-dioxo-N-[(oxolan-3-yl)methyl]-2,3-dihydro-1H-indene-2-carboxamide] | – | – | 3.96 µM | 29% | 63% |
| Cc1ccccc1NC(=O)C1C(=O)c2ccc(C(=O)c3ccc4c(c3)C(=O)C(C(=O)Nc3ccccc3C)C4=O)cc2C1=O (stereo not drawn) [Example 81, N-(2-methylphenyl)-5-{2-[(2-methylphenyl)carbamoyl]-1,3-dioxo-2,3-dihydro-1H-indene-5-carbonyl}-1,3-dioxo-2,3-dihydro-1H-indene-2-carboxamide] | – | – | 4.6 µM | – | – |
| CN(CC(=O)C1C(=O)c2ccc(C(=O)c3ccc4c(c3)C(=O)C(C(=O)CN(C)C(=O)OC(C)(C)C)C4=O)cc2C1=O)C(=O)OC(C)(C)C (stereo not drawn) [Example 264, tert-butyl N-(2-{5-[2-(2-{[(tert-butoxy)carbonyl](methyl)amino}acetyl)-1,3-dioxo-2,3-dihydro-1H-indene-5-carbonyl]-1,3-dioxo-2,3-dihydro-1H-inden-2-yl}-2-oxoethyl)-N-methylcarbamate] | – | – | 9.83 µM | 72% | 75% |
| CC(C)(C)OCC(=O)C1C(=O)c2ccc(C(=O)c3ccc4c(c3)C(=O)C(C(=O)COC(C)(C)C)C4=O)cc2C1=O (stereo not drawn) [Example 235, 2-[2-(tert-butoxy)acetyl]-5-{2-[2-(tert-butoxy)acetyl]-1,3-dioxo-2,3-dihydro-1H-indene-5-carbonyl}-2,3-dihydro-1H-indene-1,3-dione] | – | – | – | 11% | 29% |
| CCCCC(=O)C1C(=O)c2ccc(S(=O)(=O)c3ccc4c(c3)C(=O)C(C(=O)CCCC)C4=O)cc2C1=O (stereo not drawn) [Example 154, 5-[(1,3-dioxo-2-pentanoyl-2,3-dihydro-1H-inden-5-yl)sulfonyl]-2-pentanoyl-2,3-dihydro-1H-indene-1,3-dione] | 100% | 100% | 1.2 µM | – | – |
| O=C(c1ccc2c(c1)C(=O)C(C(=O)NC1CCCC1)C2=O)c1ccc2c(c1)C(=O)C(C(=O)NC1CCCC1)C2=O (stereo not drawn) [Example 71, 5,5′-carbonylbis(n-cyclopentyl-1,3-dioxo-2,3-dihydro-1h-indene-2-carboxamide)] | 2% | 85% | 1 µM | – | – |
| O=C(c1ccc2c(c1)C(=O)C(C(=O)CN1CCCC1=O)C2=O)c1ccc2c(c1)C(=O)C(C(=O)CN1CCCC1=O)C2=O (stereo not drawn) [Example 183, 5-{1,3-dioxo-2-[2-(2-oxopyrrolidin-1-yl)acetyl]-2,3-dihydro-1H-indene-5-carbonyl}-2-[2-(2-oxopyrrolidin-1-yl)acetyl]-2,3-dihydro-1H-indene-1,3-dione] | 87% | 100% | 4.3 µM | – | – |
| CC(=O)C1C(=O)c2cc(S(=O)(=O)c3cnc4c(c3)C(=O)C(C(C)=O)C4=O)cnc2C1=O (stereo not drawn) [Example 301, 6-acetyl-3-({6-acetyl-5,7-dioxo-5H,6H,7H-cyclopenta[b]pyridin-3-yl}sulfonyl)-5H,6H,7H-cyclopenta[b]pyridine-5,7-dione] | – | – | – | 23% | 30% |
| NCC(=O)C1C(=O)c2ccc(C(=O)c3ccc4c(c3)C(=O)C(C(=O)CN)C4=O)cc2C1=O (stereo not drawn) [Example 327, 2-(2-aminoacetyl)-5-[2-(2-aminoacetyl)-1,3-dioxo-2,3-dihydro-1H-indene-5-carbonyl]-2,3-dihydro-1H-indene-1,3-dione] | – | – | – | 13% | 24% |

The remaining lines, values ahead:

| inhibition at 5 µM | inhibition at 10 µM | IC50 | inhibition at 1 µM | inhibition at 3 µM | SMILES |
| --- | --- | --- | --- | --- | --- |
| 81% | 93% | 1.6 µM | – | – | N[C@@H](C(=O)C1C(=O)c2ccc(S(=O)(=O)c3ccc4c(c3)C(=O)C(C(=O)[C@H](N)c3ccccc3)C4=O)cc2C1=O)c1ccccc1 (stereo partly drawn) [Example 172, 2-[(2R)-2-amino-2-phenylacetyl]-5-({2-[(2R)-2-amino-2-phenylacetyl]-1,3-dioxo-2,3-dihydro-1H-inden-5-yl}sulfonyl)-2,3-dihydro-1H-indene-1,3-dione] |
| – | – | – | 33% | 53% | O=C(NCC1CCOC1)C1C(=O)c2ccc(S(=O)(=O)c3ccc4c(c3)C(=O)C(C(=O)NCC3CCOC3)C4=O)cc2C1=O (stereo not drawn) [Example 362, 5-[(1,3-dioxo-2-{[(oxolan-3-yl)methyl]carbamoyl}-2,3-dihydro-1H-inden-5-yl)sulfonyl]-1,3-dioxo-N-[(oxolan-3-yl)methyl]-2,3-dihydro-1H-indene-2-carboxamide] |
| 22% | 75% | – | – | – | COCCOCCC(=O)C1C(=O)c2ccc(S(=O)(=O)c3ccc4c(c3)C(=O)C(C(=O)CCOCCOC)C4=O)cc2C1=O (stereo not drawn) [Example 178, 2-[3-(2-methoxyethoxy)propanoyl]-5-({2-[3-(2-methoxyethoxy)propanoyl]-1,3-dioxo-2,3-dihydro-1H-inden-5-yl}sulfonyl)-2,3-dihydro-1H-indene-1,3-dione] |
| 79% | 88% | 3.8 µM | – | – | CC1(C)O[C@H]2O[C@@H](/C(O)=C3\C(=O)c4ccc(C(=O)c5ccc6c(c5)C(=O)/C(=C(\O)[C@@H]5O[C@@H]7OC(C)(C)O[C@@H]7[C@H]7OC(C)(C)O[C@@H]75)C6=O)cc4C3=O)[C@H]3OC(C)(C)O[C@@H]3[C@H]2O1 [Example 135, 5-{1,3-dioxo-2-[(1S,2R,6R,8R,9S)-4,4,11,11-tetramethyl-3,5,7,10,12-pentaoxatricyclo[7.3.0.0^2,^6]dodecane-8-carbonyl]-2,3-dihydro-1H-indene-5-carbonyl}-2-[(1S,2R,6R,8R,9S)-4,4,11,11-tetramethyl-3,5,7,10,12-pentaoxatricyclo[7.3.0.0^2,^6]dodecane-8-carbonyl]-2,3-dihydro-1H-indene-1,3-dione] |
| 60% | 65% | – | – | – | Cc1ccc(NC(=O)C2C(=O)c3ccc(S(=O)(=O)c4ccc5c(c4)C(=O)C(C(=O)Nc4ccc(C)cc4)C5=O)cc3C2=O)cc1 (stereo not drawn) [Example 92, N-(4-methylphenyl)-5-({2-[(4-methylphenyl)carbamoyl]-1,3-dioxo-2,3-dihydro-1H-inden-5-yl}sulfonyl)-1,3-dioxo-2,3-dihydro-1H-indene-2-carboxamide] |
| 91% | 95% | 1.2 µM | – | – | COC(=O)[C@@H]1C[C@H]1C(=O)C1C(=O)c2ccc(C(=O)c3ccc4c(c3)C(=O)C(C(=O)[C@@H]3C[C@H]3C(=O)OC)C4=O)cc2C1=O (stereo partly drawn) [Example 217, methyl (1R,2R)-2-(5-{2-[(1R,2R)-2-(methoxycarbonyl)cyclopropanecarbonyl]-1,3-dioxo-2,3-dihydro-1H-indene-5-carbonyl}-1,3-dioxo-2,3-dihydro-1H-indene-2-carbonyl)cyclopropane-1-carboxylate] |
